Test results: PubChem BioAssay (NCI)
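Growth conditions: 96-well plates. Treatment: test compound, 48 hours, 5 concentrations. Analysis: linear interpolation between bracketing concentrations; unreached endpoints set to highest concentration. Abbreviation: GI50, concentration required for 50% inhibition of growth. At the TGI there is no net growth.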

Legend:
Test in all cases: growth of human tumour cells (NCI), 48 h
SK-MEL-28 melanoma = system: SK-MEL-28 melanoma
PC-3 prostate = system: PC-3 prostate
K-562 leukemia = system: K-562 leukemia
MOLT-4 leukemia = system: MOLT-4 leukemia
HOP-92 NSCLC = system: HOP-92 NSCLC
DU-145 prostate = system: DU-145 prostate
SNB-19 CNS = system: SNB-19 CNS
NCI-H522 lung = system: NCI-H522 lung
SK-MEL-2 melanoma = system: SK-MEL-2 melanoma
OVCAR-3 ovarian = system: OVCAR-3 ovarian
A549 NSCLC = system: A549 NSCLC
COLO 205 colon = system: COLO 205 colon
UO-31 renal = system: UO-31 renal
U251 CNS = system: U251 CNS
NCI-H460 lung = system: NCI-H460 lung
SF-539 CNS = system: SF-539 CNS
SN12C renal = system: SN12C renal
OVCAR-8 ovarian = system: OVCAR-8 ovarian
HS 578T breast = system: HS 578T breast
786-0 renal = system: 786-0 renal
SF-295 CNS = system: SF-295 CNS
HT29 colon = system: HT29 colon
BT-549 breast = system: BT-549 breast
RXF 393 renal = system: RXF 393 renal
NCI/ADR-RES ovarian = system: NCI/ADR-RES ovarian
MDA-MB-231 breast = system: MDA-MB-231 breast
LOX IMVI melanoma = system: LOX IMVI melanoma
MDA-MB-435 = system: MDA-MB-435
KM12 colon = system: KM12 colon
CCRF-CEM leukemia = system: CCRF-CEM leukemia
OVCAR-5 ovarian = system: OVCAR-5 ovarian
SR leukemia = system: SR leukemia
MCF7 breast = system: MCF7 breast
SW-620 colon = system: SW-620 colon
T-47D breast = system: T-47D breast
IGROV1 ovarian = system: IGROV1 ovarian
EKVX NSCLC = system: EKVX NSCLC
UACC-62 melanoma = system: UACC-62 melanoma
HCT-15 colon = system: HCT-15 colon
A498 renal = system: A498 renal
SF-268 CNS = system: SF-268 CNS
ACHN renal = system: ACHN renal
NCI-H226 lung = system: NCI-H226 lung
SK-MEL-5 melanoma = system: SK-MEL-5 melanoma
UACC-257 melanoma = system: UACC-257 melanoma
MALME-3M melanoma = system: MALME-3M melanoma
OVCAR-4 ovarian = system: OVCAR-4 ovarian
HCC-2998 colon = system: HCC-2998 colon
M14 melanoma = system: M14 melanoma
CAKI-1 renal = system: CAKI-1 renal
RPMI-8226 leukemia = system: RPMI-8226 leukemia
NCI-H23 lung = system: NCI-H23 lung
SK-OV-3 ovarian = system: SK-OV-3 ovarian
HOP-62 NSCLC = system: HOP-62 NSCLC
MDA-MB-468 breast = system: MDA-MB-468 breast
HL-60(TB) leukemia = system: HL-60(TB) leukemia
HCT-116 colon = system: HCT-116 colon
SNB-75 CNS = system: SNB-75 CNS
TK-10 renal = system: TK-10 renal

COc1ccc(-c2nc(S(=O)(=O)c3ccccc3)c(S(C)(=O)=O)o2)cc1
GI50 (SK-MEL-28 melanoma): 12.5 µM
TGI (SK-MEL-28 melanoma): 25.2 µM
GI50 (PC-3 prostate): 14.1 µM
TGI (PC-3 prostate): 30 µM
GI50 (K-562 leukemia): 2.77 µM
TGI (K-562 leukemia): > 100 µM
GI50 (MOLT-4 leukemia): 3.39 µM
TGI (MOLT-4 leukemia): 13.2 µM
GI50 (HOP-92 NSCLC): 7.29 µM
TGI (HOP-92 NSCLC): 20.8 µM
GI50 (DU-145 prostate): 6.26 µM
TGI (DU-145 prostate): 20.4 µM
GI50 (SNB-19 CNS): 16.5 µM
TGI (SNB-19 CNS): 31.8 µM
GI50 (NCI-H522 lung): 1.65 µM
TGI (NCI-H522 lung): 3.32 µM
GI50 (SK-MEL-2 melanoma): 14.2 µM
TGI (SK-MEL-2 melanoma): 28 µM
GI50 (OVCAR-3 ovarian): 1.74 µM
TGI (OVCAR-3 ovarian): 3.33 µM
GI50 (A549 NSCLC): 19.1 µM
TGI (A549 NSCLC): 42.1 µM
GI50 (COLO 205 colon): 2.22 µM
TGI (COLO 205 colon): 4.9 µM
GI50 (UO-31 renal): 5.43 µM
TGI (UO-31 renal): 18.3 µM
GI50 (U251 CNS): 17.7 µM
TGI (U251 CNS): 34.3 µM
GI50 (NCI-H460 lung): 13.9 µM
TGI (NCI-H460 lung): 29.7 µM
GI50 (SF-539 CNS): 3.93 µM
TGI (SF-539 CNS): 14.6 µM
GI50 (SN12C renal): 11.4 µM
TGI (SN12C renal): 23.5 µM
GI50 (OVCAR-8 ovarian): 13.6 µM
TGI (OVCAR-8 ovarian): 32.1 µM
GI50 (HS 578T breast): 12.8 µM
TGI (HS 578T breast): 48.4 µM
GI50 (786-0 renal): 2.08 µM
TGI (786-0 renal): 4.98 µM
GI50 (SF-295 CNS): 15.7 µM
TGI (SF-295 CNS): 29.6 µM
GI50 (HT29 colon): 3.15 µM
TGI (HT29 colon): 9.31 µM
GI50 (BT-549 breast): 10.1 µM
TGI (BT-549 breast): 22.6 µM
GI50 (RXF 393 renal): 2.07 µM
TGI (RXF 393 renal): 4.09 µM
GI50 (NCI/ADR-RES ovarian): 17 µM
TGI (NCI/ADR-RES ovarian): 48 µM
GI50 (MDA-MB-231 breast): 3.52 µM
TGI (MDA-MB-231 breast): 12.2 µM
GI50 (LOX IMVI melanoma): 1.54 µM
TGI (LOX IMVI melanoma): 2.92 µM
GI50 (MDA-MB-435): 8.96 µM
TGI (MDA-MB-435): 21.8 µM
GI50 (KM12 colon): 17.6 µM
TGI (KM12 colon): 35.7 µM
GI50 (CCRF-CEM leukemia): 2.07 µM
TGI (CCRF-CEM leukemia): 6.22 µM
GI50 (OVCAR-5 ovarian): 14.4 µM
TGI (OVCAR-5 ovarian): 27.9 µM
GI50 (SR leukemia): 2.66 µM
TGI (SR leukemia): 25.6 µM
GI50 (MCF7 breast): 2.46 µM
TGI (MCF7 breast): 8.25 µM
GI50 (SW-620 colon): 1.67 µM
TGI (SW-620 colon): 3.39 µM
GI50 (T-47D breast): 2.16 µM
TGI (T-47D breast): 5.03 µM
GI50 (IGROV1 ovarian): 13.1 µM
TGI (IGROV1 ovarian): 27.2 µM
GI50 (EKVX NSCLC): 12.2 µM
TGI (EKVX NSCLC): 26.6 µM
GI50 (UACC-62 melanoma): 11.2 µM
TGI (UACC-62 melanoma): 23.2 µM
GI50 (HCT-15 colon): 2.04 µM
TGI (HCT-15 colon): 4.62 µM
GI50 (A498 renal): 15.5 µM
TGI (A498 renal): 29 µM
GI50 (SF-268 CNS): 14.4 µM
TGI (SF-268 CNS): 33.9 µM
GI50 (ACHN renal): 1.7 µM
TGI (ACHN renal): 3.13 µM
GI50 (NCI-H226 lung): 18.2 µM
TGI (NCI-H226 lung): 40.9 µM
GI50 (SK-MEL-5 melanoma): 15.2 µM
TGI (SK-MEL-5 melanoma): 29.1 µM
GI50 (UACC-257 melanoma): 13 µM
TGI (UACC-257 melanoma): 28 µM
GI50 (MALME-3M melanoma): 1.67 µM
TGI (MALME-3M melanoma): 3.1 µM
GI50 (OVCAR-4 ovarian): 3.44 µM
TGI (OVCAR-4 ovarian): 15.4 µM
GI50 (HCC-2998 colon): 15 µM
TGI (HCC-2998 colon): 29 µM
GI50 (M14 melanoma): 3.26 µM
TGI (M14 melanoma): 14.3 µM
GI50 (CAKI-1 renal): 2.59 µM
TGI (CAKI-1 renal): 10.9 µM
GI50 (RPMI-8226 leukemia): 3.97 µM
TGI (RPMI-8226 leukemia): > 100 µM
GI50 (NCI-H23 lung): 12 µM
TGI (NCI-H23 lung): 27.2 µM
GI50 (SK-OV-3 ovarian): 21.7 µM
TGI (SK-OV-3 ovarian): 44.9 µM
GI50 (HOP-62 NSCLC): 18.2 µM
TGI (HOP-62 NSCLC): 35.2 µM
GI50 (MDA-MB-468 breast): 2.24 µM
TGI (MDA-MB-468 breast): 4.41 µM
GI50 (HL-60(TB) leukemia): 2.38 µM
TGI (HL-60(TB) leukemia): 20.9 µM
GI50 (HCT-116 colon): 1.99 µM
TGI (HCT-116 colon): 4.58 µM
GI50 (SNB-75 CNS): 11.3 µM
TGI (SNB-75 CNS): 23.7 µM
GI50 (TK-10 renal): 7.5 µM
TGI (TK-10 renal): 21 µM
